As a reminder, the IC50 is the concentration that inhibits the measured activity by half. Low readings indicate greater potency, high ones weaker potency.

Assay [1] addresses Epidermal growth factor receptor (Homo sapiens, UniProt P00533). Put plainly: Inhibition of EGFR (unknown origin) using poly (Glu, Tyr) 4:1 substrate incubated for 30 mins by HTRF assay. On the technique in general: TR-FRET usually uses a lanthanide donor and a delayed reading to cut background.
Assay [2] has as its target Hepatocyte growth factor receptor (Homo sapiens, UniProt P08581). Put plainly: Inhibition of c-Met (unknown origin) using poly (Glu, Tyr) 4:1 substrate incubated for 30 mins by HTRF assay.
A further assay deals with A549. Put plainly: Cytotoxicity against human A549 cells after 72 hrs by MTT assay. To be noted: A549, 72 h. (In general: Tetrazolium assays rely on reduction of a dye to a coloured formazan, in cell work by metabolically active cells.)
The nature of assay [3]: Cytotoxicity against human H460 cells after 72 hrs by MTT assay. To be noted: NCI-H460, 72 h.
Assay [4] deals with Vascular endothelial growth factor receptor 2 (Homo sapiens, UniProt P35968). Kind of assay: Inhibition of KDR (unknown origin) using poly (Glu, Tyr) 4:1 substrate incubated for 30 mins by HTRF assay.
The subject of the next assay is HT-29. Put plainly: Cytotoxicity against human HT-29 cells after 72 hrs by MTT assay. The following applies: HT-29, 72 h.
Assay [5] in a line: Cytotoxicity against human MKN45 cells after 72 hrs by MTT assay. To be noted: MKN-45, 72 h.
The nature of assay [6]: Cytotoxicity against human U87MG cells after 72 hrs by MTT assay. It is filed as functional, cell-based, U-87MG ATCC. To be noted: U-87 MG.
Assay [7] has as its target Mast/stem cell growth factor receptor Kit (Homo sapiens, UniProt P10721). Kind of assay: Inhibition of c-Kit (unknown origin) using poly (Glu, Tyr) 4:1 substrate incubated for 30 mins by HTRF assay.
Assay [8] addresses T1, Receptor-type tyrosine-protein kinase FLT3 (Homo sapiens, UniProt P36888).
T1 sequence (P36888 whole entry): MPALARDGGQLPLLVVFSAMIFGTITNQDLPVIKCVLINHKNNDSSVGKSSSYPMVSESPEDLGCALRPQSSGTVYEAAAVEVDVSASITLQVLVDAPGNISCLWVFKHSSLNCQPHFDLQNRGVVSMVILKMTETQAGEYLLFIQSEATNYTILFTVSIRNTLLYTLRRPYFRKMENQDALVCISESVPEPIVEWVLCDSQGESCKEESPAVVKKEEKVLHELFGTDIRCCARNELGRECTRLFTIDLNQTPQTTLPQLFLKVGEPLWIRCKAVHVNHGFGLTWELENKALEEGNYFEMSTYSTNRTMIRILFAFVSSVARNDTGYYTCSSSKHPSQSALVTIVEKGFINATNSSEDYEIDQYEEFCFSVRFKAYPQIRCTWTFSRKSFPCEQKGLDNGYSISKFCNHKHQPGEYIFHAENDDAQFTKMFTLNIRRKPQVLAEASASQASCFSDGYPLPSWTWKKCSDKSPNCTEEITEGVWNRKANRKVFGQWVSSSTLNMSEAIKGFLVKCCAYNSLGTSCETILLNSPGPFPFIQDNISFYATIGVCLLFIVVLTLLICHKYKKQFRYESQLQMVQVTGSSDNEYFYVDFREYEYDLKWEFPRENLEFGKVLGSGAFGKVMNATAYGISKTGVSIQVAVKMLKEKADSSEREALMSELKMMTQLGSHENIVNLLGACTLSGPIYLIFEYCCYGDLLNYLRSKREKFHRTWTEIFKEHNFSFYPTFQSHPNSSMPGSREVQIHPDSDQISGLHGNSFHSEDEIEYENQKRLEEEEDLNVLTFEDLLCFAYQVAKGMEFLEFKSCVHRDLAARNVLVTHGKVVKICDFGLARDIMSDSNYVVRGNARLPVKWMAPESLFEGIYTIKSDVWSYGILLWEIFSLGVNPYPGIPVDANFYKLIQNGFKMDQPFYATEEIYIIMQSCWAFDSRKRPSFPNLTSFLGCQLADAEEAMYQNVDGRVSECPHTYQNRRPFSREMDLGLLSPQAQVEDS
Kind of assay: Inhibition of FLT3 (unknown origin) using poly (Glu, Tyr) 4:1 substrate incubated for 30 mins by HTRF assay.

The target of assay [9] is Platelet-derived growth factor receptor beta (Homo sapiens, UniProt P09619). Put plainly: Inhibition of PDGFRbeta (unknown origin) using poly (Glu, Tyr) 4:1 substrate incubated for 30 mins by HTRF assay.

Some results are limits rather than exact numbers.

Hepatocyte growth factor receptor, sequence (P08581 whole entry): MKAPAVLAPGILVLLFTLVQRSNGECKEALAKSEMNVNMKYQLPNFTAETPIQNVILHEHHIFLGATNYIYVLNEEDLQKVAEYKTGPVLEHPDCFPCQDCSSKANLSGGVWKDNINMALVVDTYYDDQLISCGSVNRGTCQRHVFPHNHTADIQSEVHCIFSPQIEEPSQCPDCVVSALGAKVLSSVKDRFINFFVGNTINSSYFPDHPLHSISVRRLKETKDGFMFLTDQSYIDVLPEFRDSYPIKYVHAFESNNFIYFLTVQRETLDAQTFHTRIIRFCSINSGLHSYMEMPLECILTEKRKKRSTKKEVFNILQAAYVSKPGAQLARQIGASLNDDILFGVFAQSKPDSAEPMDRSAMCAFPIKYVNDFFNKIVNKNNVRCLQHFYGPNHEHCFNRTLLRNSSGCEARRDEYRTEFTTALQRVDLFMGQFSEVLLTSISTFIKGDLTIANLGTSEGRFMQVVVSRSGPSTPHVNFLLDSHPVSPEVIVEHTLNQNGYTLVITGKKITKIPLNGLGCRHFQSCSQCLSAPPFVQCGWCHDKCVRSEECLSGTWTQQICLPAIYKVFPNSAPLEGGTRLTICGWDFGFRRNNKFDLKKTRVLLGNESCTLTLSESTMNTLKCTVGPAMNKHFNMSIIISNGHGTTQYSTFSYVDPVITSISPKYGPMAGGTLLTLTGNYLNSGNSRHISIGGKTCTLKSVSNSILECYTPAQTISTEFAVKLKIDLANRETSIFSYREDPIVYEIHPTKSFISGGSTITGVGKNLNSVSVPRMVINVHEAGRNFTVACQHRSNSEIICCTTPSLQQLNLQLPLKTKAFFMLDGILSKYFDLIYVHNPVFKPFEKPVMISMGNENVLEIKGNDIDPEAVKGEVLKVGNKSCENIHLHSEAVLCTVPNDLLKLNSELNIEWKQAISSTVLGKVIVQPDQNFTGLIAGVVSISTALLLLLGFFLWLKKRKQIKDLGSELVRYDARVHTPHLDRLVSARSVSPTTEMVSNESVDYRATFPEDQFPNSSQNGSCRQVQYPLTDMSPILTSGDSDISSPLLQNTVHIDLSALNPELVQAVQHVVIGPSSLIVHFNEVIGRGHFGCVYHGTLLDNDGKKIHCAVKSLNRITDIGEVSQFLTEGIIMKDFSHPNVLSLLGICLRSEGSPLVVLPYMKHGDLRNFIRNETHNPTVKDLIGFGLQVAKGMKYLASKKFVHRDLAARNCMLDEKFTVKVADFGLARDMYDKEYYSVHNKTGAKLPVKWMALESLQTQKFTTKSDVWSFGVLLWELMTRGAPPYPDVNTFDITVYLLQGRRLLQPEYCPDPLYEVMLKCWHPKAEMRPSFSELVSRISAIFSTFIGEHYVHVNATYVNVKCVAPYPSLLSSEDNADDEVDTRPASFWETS
Vascular endothelial growth factor receptor 2, sequence (P35968 whole entry): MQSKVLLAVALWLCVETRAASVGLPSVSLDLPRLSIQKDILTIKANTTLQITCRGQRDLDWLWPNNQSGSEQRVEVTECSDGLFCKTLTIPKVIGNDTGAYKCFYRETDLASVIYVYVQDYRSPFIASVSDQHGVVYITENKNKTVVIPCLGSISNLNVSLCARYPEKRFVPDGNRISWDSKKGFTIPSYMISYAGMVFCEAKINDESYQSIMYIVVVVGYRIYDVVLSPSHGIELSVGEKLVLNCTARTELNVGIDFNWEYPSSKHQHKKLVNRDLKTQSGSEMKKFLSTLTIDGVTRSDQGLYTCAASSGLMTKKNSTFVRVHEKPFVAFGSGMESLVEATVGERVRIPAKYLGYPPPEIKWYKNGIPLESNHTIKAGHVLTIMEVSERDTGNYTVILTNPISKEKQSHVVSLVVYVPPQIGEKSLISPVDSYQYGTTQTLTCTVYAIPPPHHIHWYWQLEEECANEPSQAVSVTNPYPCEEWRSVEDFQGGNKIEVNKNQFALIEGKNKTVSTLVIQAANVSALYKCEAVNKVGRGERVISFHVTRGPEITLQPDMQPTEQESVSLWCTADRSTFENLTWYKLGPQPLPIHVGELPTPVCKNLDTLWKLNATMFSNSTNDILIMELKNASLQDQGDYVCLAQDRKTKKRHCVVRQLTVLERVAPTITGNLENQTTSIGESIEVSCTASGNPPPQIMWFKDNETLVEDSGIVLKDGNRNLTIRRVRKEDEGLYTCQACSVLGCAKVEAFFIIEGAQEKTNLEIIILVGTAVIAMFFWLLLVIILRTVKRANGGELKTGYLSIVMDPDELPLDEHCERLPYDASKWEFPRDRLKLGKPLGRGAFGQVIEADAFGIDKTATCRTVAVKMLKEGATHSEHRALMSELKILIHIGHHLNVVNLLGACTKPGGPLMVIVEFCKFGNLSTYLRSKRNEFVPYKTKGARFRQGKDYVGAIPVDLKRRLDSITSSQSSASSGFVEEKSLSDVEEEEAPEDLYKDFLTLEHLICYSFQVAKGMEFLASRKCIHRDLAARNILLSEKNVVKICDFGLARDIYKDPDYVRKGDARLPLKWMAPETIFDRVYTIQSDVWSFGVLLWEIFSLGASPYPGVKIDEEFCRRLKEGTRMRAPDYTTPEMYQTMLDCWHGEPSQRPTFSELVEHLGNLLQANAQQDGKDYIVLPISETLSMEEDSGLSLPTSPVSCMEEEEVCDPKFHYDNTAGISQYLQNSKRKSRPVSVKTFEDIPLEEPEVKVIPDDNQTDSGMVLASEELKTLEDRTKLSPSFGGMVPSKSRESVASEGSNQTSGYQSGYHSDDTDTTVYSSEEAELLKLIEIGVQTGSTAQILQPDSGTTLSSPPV
Epidermal growth factor receptor, sequence (P00533 whole entry): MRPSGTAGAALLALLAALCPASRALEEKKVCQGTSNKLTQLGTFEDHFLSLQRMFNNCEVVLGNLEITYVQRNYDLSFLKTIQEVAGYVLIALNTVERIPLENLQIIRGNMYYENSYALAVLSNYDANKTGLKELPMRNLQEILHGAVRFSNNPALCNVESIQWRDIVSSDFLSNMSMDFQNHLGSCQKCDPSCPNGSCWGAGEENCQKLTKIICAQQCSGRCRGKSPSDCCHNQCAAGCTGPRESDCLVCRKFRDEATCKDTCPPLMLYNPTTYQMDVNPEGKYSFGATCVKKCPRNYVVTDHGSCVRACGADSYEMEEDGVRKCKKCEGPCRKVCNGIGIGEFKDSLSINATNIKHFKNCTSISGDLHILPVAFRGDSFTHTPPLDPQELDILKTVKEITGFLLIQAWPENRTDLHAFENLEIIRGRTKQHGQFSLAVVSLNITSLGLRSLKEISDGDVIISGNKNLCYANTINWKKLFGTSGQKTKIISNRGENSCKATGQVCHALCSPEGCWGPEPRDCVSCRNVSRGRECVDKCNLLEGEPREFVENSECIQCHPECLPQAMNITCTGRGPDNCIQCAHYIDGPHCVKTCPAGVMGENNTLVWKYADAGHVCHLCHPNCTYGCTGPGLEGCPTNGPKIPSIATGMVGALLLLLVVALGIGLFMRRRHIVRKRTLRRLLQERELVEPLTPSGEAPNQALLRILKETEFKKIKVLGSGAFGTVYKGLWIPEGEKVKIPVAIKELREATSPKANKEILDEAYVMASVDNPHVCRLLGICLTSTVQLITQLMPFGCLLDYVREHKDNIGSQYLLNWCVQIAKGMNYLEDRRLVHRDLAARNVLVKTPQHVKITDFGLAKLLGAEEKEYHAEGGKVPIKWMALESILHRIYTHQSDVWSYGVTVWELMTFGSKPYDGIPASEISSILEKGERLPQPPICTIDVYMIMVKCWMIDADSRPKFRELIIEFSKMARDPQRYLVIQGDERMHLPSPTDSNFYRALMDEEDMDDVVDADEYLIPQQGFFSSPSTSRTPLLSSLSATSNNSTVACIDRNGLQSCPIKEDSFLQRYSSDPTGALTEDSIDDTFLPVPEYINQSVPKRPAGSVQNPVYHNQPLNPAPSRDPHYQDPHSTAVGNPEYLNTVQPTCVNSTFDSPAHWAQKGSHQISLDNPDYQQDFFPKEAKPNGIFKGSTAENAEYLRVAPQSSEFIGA
Mast/stem cell growth factor receptor Kit, sequence (P10721 whole entry): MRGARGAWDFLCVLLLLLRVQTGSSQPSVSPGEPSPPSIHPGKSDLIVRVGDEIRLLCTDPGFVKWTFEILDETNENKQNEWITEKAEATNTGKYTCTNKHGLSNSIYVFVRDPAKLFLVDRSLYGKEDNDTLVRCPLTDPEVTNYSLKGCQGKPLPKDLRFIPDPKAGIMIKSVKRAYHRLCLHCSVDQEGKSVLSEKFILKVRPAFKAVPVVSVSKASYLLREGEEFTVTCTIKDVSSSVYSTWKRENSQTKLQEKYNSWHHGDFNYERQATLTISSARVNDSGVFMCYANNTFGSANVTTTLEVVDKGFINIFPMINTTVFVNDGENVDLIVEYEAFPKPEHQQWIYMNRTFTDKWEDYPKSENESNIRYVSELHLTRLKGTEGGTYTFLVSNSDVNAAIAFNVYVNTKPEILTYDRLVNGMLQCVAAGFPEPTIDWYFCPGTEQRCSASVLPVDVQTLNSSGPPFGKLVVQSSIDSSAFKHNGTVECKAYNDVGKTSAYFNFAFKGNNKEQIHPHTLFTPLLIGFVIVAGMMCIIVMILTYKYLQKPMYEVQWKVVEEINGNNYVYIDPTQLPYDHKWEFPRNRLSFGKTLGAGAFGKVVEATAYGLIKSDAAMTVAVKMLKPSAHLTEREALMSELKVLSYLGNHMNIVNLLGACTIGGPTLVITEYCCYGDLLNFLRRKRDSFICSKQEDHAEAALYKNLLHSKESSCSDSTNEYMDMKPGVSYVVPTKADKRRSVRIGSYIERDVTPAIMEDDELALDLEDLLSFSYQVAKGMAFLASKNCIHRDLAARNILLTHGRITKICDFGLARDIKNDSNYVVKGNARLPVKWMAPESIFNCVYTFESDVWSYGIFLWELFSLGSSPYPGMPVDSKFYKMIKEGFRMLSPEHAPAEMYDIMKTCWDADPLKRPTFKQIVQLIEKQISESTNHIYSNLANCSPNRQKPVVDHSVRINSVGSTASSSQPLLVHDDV

As to `COc1cc2c(Oc3ccc(NC(=O)c4nnn(-c5ccc(F)cc5)c4C(F)(F)F)cc3F)ccnc2cc1OCCCN1CCCC1`, the half-inhibitory concentration (IC50) in assay [1] was above 10000 nM; in [2], 1.04 nM; in the assay on A549, 80 nM; in [3] it was 150 nM; in [4] it was 65.4 nM; in the assay with HT-29 it was 120 nM. In addition, the half-inhibitory concentration (IC50) in [5] turned out to be 21 nM; in [6], 850 nM; in [7], 4.02 nM; in assay [8] it was 8.78 nM; in [9], 16.3 nM.

`COc1cc2c(Oc3ccc(NC(=O)c4nnn(-c5ccccc5C(F)(F)F)c4C(F)(F)F)cc3F)ccnc2cc1OCCCN1CCCC1`: the 50% inhibitory concentration (IC50) in assay [2] was 3.68 nM; with A549 it was 200 nM; in [3], 270 nM; in the assay with HT-29 it was 210 nM; in assay [5] it was 60 nM; in assay [6], 1180 nM.

With `COc1cc2c(Oc3ccc(NC(=O)c4nnn(-c5ccccc5C)c4C)cc3F)ccnc2cc1OCCCN1CCCCC1`, the IC50 with A549 came out at 330 nM; in the assay on HT-29, 450 nM; in [5], 160 nM; in assay [6], 2370 nM.

For `COc1cc2c(Oc3ccc(NC(=O)c4nnn(-c5ccccc5)c4C)cc3F)ccnc2cc1OCCCN1CCCCC1`, the IC50 in the assay on A549 came out at 100 nM; with HT-29, 120 nM; in [5], 80 nM; in assay [6], 1130 nM.

Consider `COc1cc2c(Oc3ccc(NC(=O)c4nnn(-c5ccccc5C(F)(F)F)c4C)cc3F)ccnc2cc1OCCCN1CCCCC1`, for which the IC50 turned out to be 170 nM in the assay on A549, 200 nM in the assay on HT-29, 90 nM in assay [5] and 1150 nM in [6].

`COc1cc2c(Oc3ccc(NC(=O)c4nnn(-c5ccc(F)cc5)c4C(F)(F)F)cc3F)ccnc2cc1OCCCN1CCCCC1`: the IC50 was 110 nM in the assay with A549, 150 nM in the assay on HT-29, 40 nM in assay [5] and 1100 nM in assay [6].

With `COc1cc2c(Oc3ccc(NC(=O)c4nnn(-c5ccc(C)cc5)c4C(F)(F)F)cc3F)ccnc2cc1OCCCN1CCCCC1`, the IC50 was found to be 490 nM with A549, 1250 nM with HT-29, 230 nM in [5] and 2500 nM in [6].

With `COc1cc2c(Oc3ccc(NC(=O)c4nnn(-c5ccccc5Cl)c4C(F)(F)F)cc3F)ccnc2cc1OCCCN1CCCCC1`, the IC50 with A549 is 190 nM; in the assay with HT-29, 200 nM; in assay [5], 110 nM; in [6], 1200 nM.

As for `COc1cc2c(Oc3ccc(NC(=O)c4nnn(-c5ccc(F)c(F)c5)c4C(F)(F)F)cc3F)ccnc2cc1OCCCN1CCCCC1`, the half-maximal inhibitory concentration (IC50) worked out at 160 nM with A549, 180 nM in the assay on HT-29, 90 nM in assay [5] and 1210 nM in [6].

As to `COc1ccc(-n2nnc(C(=O)Nc3ccc(Oc4ccnc5cc(OCCCN6CCCCC6)c(OC)cc45)c(F)c3)c2C(F)(F)F)cc1`, the IC50 was 890 nM in the assay on A549, 1220 nM in the assay on HT-29, 280 nM in [5] and 2800 nM in assay [6].

For `COc1cc2c(Oc3ccc(NC(=O)c4nnn(-c5ccccc5C)c4C)cc3F)ccnc2cc1OCCCN1CCC(C)CC1`, the half-inhibitory concentration (IC50) in the assay on A549 amounted to 360 nM; in the assay with HT-29, 520 nM; in [5] it was 120 nM; in assay [6] it was 2160 nM.

For the compound `COc1cc2c(Oc3ccc(NC(=O)c4nnn(-c5ccccc5)c4C)cc3F)ccnc2cc1OCCCN1CCC(C)CC1`, the IC50 in the assay with A549 turned out to be 110 nM; in the assay on HT-29, 140 nM; in assay [5], 90 nM; in [6], 1240 nM.

Consider `COc1cc2c(Oc3ccc(NC(=O)c4nnn(-c5ccccc5C(F)(F)F)c4C)cc3F)ccnc2cc1OCCCN1CCC(C)CC1`, for which the IC50 came out at 180 nM with A549, 260 nM with HT-29, 60 nM in [5] and 1120 nM in assay [6].

Regarding `COc1cc2c(Oc3ccc(NC(=O)c4nnn(-c5ccc(F)cc5)c4C(F)(F)F)cc3F)ccnc2cc1OCCCN1CCC(C)CC1`, the IC50 in the assay on A549 came to 120 nM; in the assay on HT-29, 160 nM; in [5] it was 70 nM; in assay [6] it was 800 nM.

Turning to `COc1cc2c(Oc3ccc(NC(=O)c4nnn(-c5ccc(C)cc5)c4C(F)(F)F)cc3F)ccnc2cc1OCCCN1CCC(C)CC1`, the IC50 in the assay on A549 is 400 nM; in the assay on HT-29, 1200 nM; in [5], 140 nM; in [6], 2800 nM.

On to `COc1cc2c(Oc3ccc(NC(=O)c4nnn(-c5ccccc5C(F)(F)F)c4C(F)(F)F)cc3F)ccnc2cc1OCCCN1CCC(C)CC1`, for which the half-maximal inhibitory concentration (IC50) with A549 is 220 nM; in the assay with HT-29, 200 nM; in [5] it was 100 nM; in assay [6], 1240 nM.

As to `COc1cc2c(Oc3ccc(NC(=O)c4nnn(-c5ccc(F)c(F)c5)c4C(F)(F)F)cc3F)ccnc2cc1OCCCN1CCC(C)CC1`, the concentration for half-maximal inhibition (IC50) in the assay on A549 was determined as 140 nM; with HT-29, 190 nM; in assay [5], 50 nM; in [6] it was 1150 nM.

As to `COc1cc2c(Oc3ccc(NC(=O)c4nnn(-c5ccccc5C(F)(F)F)c4C)cc3F)ccnc2cc1OCCCN1CCN(C)CC1`, the IC50 came to 200 nM in the assay on A549, 230 nM in the assay on HT-29, 100 nM in [5] and 1420 nM in assay [6].

As for `COc1cc2c(Oc3ccc(NC(=O)c4nnn(-c5ccccc5Cl)c4C(F)(F)F)cc3F)ccnc2cc1OCCCN1CCN(C)CC1`, the IC50 with A549 was 240 nM; with HT-29, 270 nM; in assay [5] it was 166 nM; in assay [6] it was 1220 nM.

Consider `COc1cc2c(Oc3ccc(NC(=O)c4nnn(-c5ccc(C)cc5)c4C(F)(F)F)cc3F)ccnc2cc1OCCCN1CCN(C)CC1`, for which the IC50 was found to be 370 nM in the assay with A549, 1170 nM in the assay with HT-29, 140 nM in assay [5] and 2170 nM in assay [6].

Consider `COc1cc2c(Oc3ccc(NC(=O)c4nnn(-c5ccccc5C(F)(F)F)c4C(F)(F)F)cc3F)ccnc2cc1OCCCN1CCN(C)CC1`, for which the IC50 with A549 was determined as 180 nM; in the assay on HT-29, 230 nM; in [5], 100 nM; in [6], 1440 nM.

With `COc1cc2c(Oc3ccc(NC(=O)c4nnn(-c5ccc(F)c(F)c5)c4C(F)(F)F)cc3F)ccnc2cc1OCCCN1CCN(C)CC1`, the half-maximal inhibitory concentration (IC50) in the assay on A549 came to 130 nM; with HT-29 it was 150 nM; in assay [5], 90 nM; in assay [6], 1390 nM.

For the origin of these results see ChEMBL document CHEMBL3352351 (Bioorg Med Chem, 2014).
